One assay concerns the target T1, hOTR (Homo sapiens, UniProt P30559).
T1 construct: expressed in transfected cells
T1 sequence (P30559 1-389): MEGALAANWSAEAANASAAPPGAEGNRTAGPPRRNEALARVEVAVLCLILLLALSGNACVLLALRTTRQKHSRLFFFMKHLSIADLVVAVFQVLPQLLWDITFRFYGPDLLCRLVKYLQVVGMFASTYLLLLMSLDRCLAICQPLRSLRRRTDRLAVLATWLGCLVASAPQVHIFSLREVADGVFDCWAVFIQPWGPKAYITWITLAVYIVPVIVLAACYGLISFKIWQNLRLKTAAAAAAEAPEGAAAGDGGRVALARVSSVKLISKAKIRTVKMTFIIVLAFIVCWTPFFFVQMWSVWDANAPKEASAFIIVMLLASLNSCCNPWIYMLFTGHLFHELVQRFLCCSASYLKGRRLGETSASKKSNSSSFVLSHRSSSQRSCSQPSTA
The experiment in a line: Radioligand displacement and saturation binding, membranes of HEK293 cells stably expressing hOTR, [3H]-OT. As to conditions: for Ki: [3H]-OT, mean ± SD, duplicates, at least three independent experiments, read-out: Ki hOTR. On the technique in general: Displacement assays read how much labelled ligand stays bound in the presence of the test substance.

The next assay has as its target T2, hV1aR (Homo sapiens, UniProt P37288).
T2 construct: expressed in transfected cells
The experiment in a line: Radioligand displacement and saturation binding, membranes of HEK293 cells stably expressing hV1aR, [3H]-VP. The following applies: read-out: Ki hV1aR.

For another assay, the target named is T3, hV1bR (Homo sapiens, UniProt P47901).
T3 construct: expressed in transfected cells; membrane preparation
T3 sequence (P47901 1-424): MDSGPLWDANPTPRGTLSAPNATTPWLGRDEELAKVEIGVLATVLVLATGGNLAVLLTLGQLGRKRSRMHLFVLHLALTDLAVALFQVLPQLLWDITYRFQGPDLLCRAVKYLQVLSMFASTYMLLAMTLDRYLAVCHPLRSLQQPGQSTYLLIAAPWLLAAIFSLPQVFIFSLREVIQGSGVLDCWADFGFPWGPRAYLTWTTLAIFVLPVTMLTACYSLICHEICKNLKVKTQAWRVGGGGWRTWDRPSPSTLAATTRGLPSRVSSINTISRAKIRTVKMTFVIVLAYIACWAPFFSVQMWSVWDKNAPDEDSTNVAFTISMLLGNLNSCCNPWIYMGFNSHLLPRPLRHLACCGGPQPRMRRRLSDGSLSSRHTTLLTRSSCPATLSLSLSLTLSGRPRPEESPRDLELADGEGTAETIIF
The experiment in a line: Radioligand displacement and saturation binding, membranes of HEK293 cells stably expressing hV1bR, [3H]-VP. The following applies: read-out: Ki hV1bR.

The next assay has as its target T4, hV2R (Homo sapiens, UniProt P30518).
T4 construct: expressed in transfected cells; membrane preparation
The experiment in a line: Radioligand displacement and saturation binding, membranes of HEK293 cells stably expressing hV2R, [3H]-VP. As to conditions: read-out: Ki hV2R.

A further assay concerns the target T5, mOTR (Mus musculus, UniProt P97926).
T5 construct: expressed in transfected cells; host or cells: wild-type HEK293, transient transfection (jetPRIME); membrane preparation
T5 sequence (P97926 1-388): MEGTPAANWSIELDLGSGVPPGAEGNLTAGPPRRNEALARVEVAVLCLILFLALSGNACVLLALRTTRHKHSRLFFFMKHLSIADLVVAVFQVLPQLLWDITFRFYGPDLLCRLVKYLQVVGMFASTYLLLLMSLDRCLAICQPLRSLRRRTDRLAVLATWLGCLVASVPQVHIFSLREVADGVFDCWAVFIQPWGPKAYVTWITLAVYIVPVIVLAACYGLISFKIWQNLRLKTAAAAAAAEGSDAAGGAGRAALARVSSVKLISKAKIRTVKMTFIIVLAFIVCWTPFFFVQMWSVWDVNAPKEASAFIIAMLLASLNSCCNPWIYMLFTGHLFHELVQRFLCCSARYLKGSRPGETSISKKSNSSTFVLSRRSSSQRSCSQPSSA
The experiment in a line: Radioligand displacement, membranes of HEK293 cells transiently expressing mOTR. The assay is classed as binding, murine.

The next assay concerns the target T6, mV1aR (Mus musculus, UniProt Q62463).
T6 construct: expressed in transfected cells; host or cells: wild-type HEK293, transient transfection (jetPRIME); membrane preparation
The assay is described as follows: Radioligand displacement, membranes of HEK293 cells transiently expressing mV1aR. Format: binding. As to conditions: murine receptor, transient expression; mean ± SD.

Another assay deals with T7, mV1bR (Mus musculus, UniProt Q9WU02).
T7 construct: expressed in transfected cells; host or cells: wild-type HEK293, transient transfection (jetPRIME); membrane preparation
T7 sequence (Q9WU02 1-421): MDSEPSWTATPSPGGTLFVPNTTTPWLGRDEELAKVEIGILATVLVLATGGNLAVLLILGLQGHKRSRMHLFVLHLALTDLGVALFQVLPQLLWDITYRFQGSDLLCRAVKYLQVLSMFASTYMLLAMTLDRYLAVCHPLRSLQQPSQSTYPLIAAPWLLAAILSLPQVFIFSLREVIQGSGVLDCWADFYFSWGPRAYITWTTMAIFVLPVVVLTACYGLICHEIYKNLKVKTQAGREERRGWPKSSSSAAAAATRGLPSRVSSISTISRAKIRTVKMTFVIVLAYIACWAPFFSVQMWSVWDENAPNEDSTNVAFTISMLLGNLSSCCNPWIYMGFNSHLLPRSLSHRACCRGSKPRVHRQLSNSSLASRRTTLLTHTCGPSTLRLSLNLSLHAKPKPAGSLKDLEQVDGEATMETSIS
The experiment in a line: Radioligand displacement, membranes of HEK293 cells transiently expressing mV1bR. Format: binding. As to conditions: murine receptor, transient expression; mean ± SD.

The next assay concerns the target T8, mV2R (Mus musculus, UniProt O88721).
T8 construct: expressed in transfected cells; host or cells: wild-type HEK293, transient transfection (jetPRIME); membrane preparation
The experiment in a line: Radioligand displacement, membranes of HEK293 cells transiently expressing mV2R. The assay is classed as binding. The following applies: murine receptor, transient expression; mean ± SD.

Assay [1] concerns human uterine smooth muscle cells (UtSMC). The assay is described as follows: Stimulation of primary human uterine smooth muscle cells (UtSMC). Format: cell-based.
Experimental: (§1) Finally, we evaluated whether tracer (11) is applicable in primary cells endogenously expressing OTR.
(§2) Primary UtSMC and hippocampal neuronal cultures.
(§3) Muscle Cell Basal Medium 2 (PromoCell), including supplements (PromoCell) and P/S (Gibco) at 37°C and 5%
(§4) CO2. Cells were trypsinized with 0.1% Trypsin/EDTA (Gibco) and plated on glass -bottom 96-well plates (CellVis)
(§5) at a density of 10,000 cells/well in full growth medium. The next day, cells were stimulated with tracer ( 11), OTA ,
(§6) dissociated with flame -polishe d Pasteur pipettes in Hank’s balanced salt solution (HBSS, Gibco). Tissue pieces
(§7) were subsequently enzymatically dissociated with 0.1% Trypsin/EDTA (Gibco) in Neurobasal A (NBA, Gibco)
(§8) containing 1,000U/mL DNase (Sigma) for 5 min at 37°C. Cells were triturated with flamed Pasteur pipettes,
(§9) filtered through a 40 µm nylon mesh ( Thermo Fisher Scientific ), centrifuged at 200 g for 5 min, and washed up to
(§10) three times in NBA containing P/S (Gibco), GlutaMax (Gibco) , and B27 supplement (Gibco). Cells were plated at
(§11) 20,000 cells/well on PDL -coated (Sigma) glass -bottom black 96 -well microscopy plates (Cellvis) and grown at
(§12) 37°C with 5% CO 2. Half of the medium was replaced every 3 -4 days. After 13 -14 days in vitro , neuronal cultures
(§13) were exposed to 100 nM tracer ( 11) for one hour, with or without 30-min pretreatment with 10 µM of the peptide
antagonist OTA. In parallel, neurons were exposed to 100 nM of the scrambled tracer SCR for 1 h. After
stimulations, cells were washed with ice-cold PBS and fixed with 4% paraformaldehyde for 30 min on ice. Next,
washed again in PBS, and directly imaged on a Zeiss LSM880 confocal microscope.
For assay [2], the system named is mouse embryonic hippocampal neurons. The experiment in a line: Tracer uptake in primary mouse hippocampal neurons. The assay is classed as cell-based.
Experimental: as §1, §2, §3, §4, §5, §6, §7, §8, §9, §10, §11, §12, §13
antagonist OTA. […]
Assay [3] has as its system rat embryonic hippocampal neurons. The experiment in a line: Tracer uptake in primary rat hippocampal neurons. The assay is classed as cell-based. As to conditions: 10 µM, 30 min.
Experimental: as §1, §2, §3, §4, §5, §6, §7, §8, §9, §10, §11, §12, §13
antagonist OTA. […]
Assay [4] has as its target T9, hOTR-GFP in HEK293 cells (Homo sapiens, UniProt P30559).
T9 sequence (P30559 1-389): T1 sequence (P30559 1-389)
The experiment in a line: hOTR-GFP internalization and tracer uptake, confocal microscopy after fixation/ICC. Format: cell-based. Set-up: expressed in transfected cells.
Text: To validate the application scope of our tracers for biological systems and post‐hoc imaging, we used HEK293 cells stably overexpressing human OTR or V1aR, tagged with a C‐terminal fused green fluorescent protein to visualize receptor trafficking (hOTR‐GFP or hV1aR‐GFP, respectively).
subsequently washed with PBS and processed for immunocytochemistry.
Immunocytochemistry and imaging. Unspecific protein binding was quenched with 5% normal donkey serum
(Jackson ImmunoResearch), 2% bovine serum albumin (Sigma-Aldrich, Merck), and 0.2% Triton X-100 (Sigma-
Aldrich, Merck) in PBS. Next, cells were exposed to primary antibody cocktails containing FITC-conjugated goat-
anti-GF (1:2000, Sigma-Aldrich, Merck) and mouse pCREB (1:300, Sigma-Aldrich, Merck) in PBS with 2%
normal donkey serum, 0.1% BSA, and 0.2% Triton X-100 overnight at 4°C. After three PBS washing steps, wells
were incubated with secondary antibody cocktails (1:400, Jackson Immuno Research) containing suitable
were mounted with glycerol gelatin (Sigma-Aldrich, Merck) and imaged on a Zeiss LSM 780/880 confocal
microscope (Zeiss). Images were analyzed and equally contrasted for visualization with ZEN Pro (Zeiss) and

The target of assay [5] is T9, hOTR-GFP in HEK293 cells. The assay is described as follows: Live-cell imaging (ZEISS Lattice SIM) of hOTR-GFP internalization. The following applies: 10 and 100 nM tracer.
Experimental: We first exposed hOTR‐GFP cells to 10 and 100 nM of tracer (11) during acquisition with a ZEISS Lattice SIM microscope (Movies S1 and S2). […] To further disentangle the dynamics of our tracer‐mediated OTR engagement and trafficking, we evaluated its applicability in single‐particle tracking (SPT) in living cells. We cultured HEK293 (parent cells) and HEK293 cells stably expressing hOTR‐GFP (HEK293‐hOTR‐GFP) and performed total internal reflection microscopy (TIRFM) SPT universal point accumulation imaging in nanoscale topography (uPAINT) following the addition of 1 nM of tracer (10). […] This concentration was selected to facilitate the detection and tracking of single molecules of the fluorescent agonist tracer following binding to hOTR at the plasma membrane by uPAINT. […] We first assessed the number of tracks (indicative of the number of single molecules detected/tracked). […] We quantified the mean squared displacement of each trajectory to calculate its apparent diffusion coefficient. The diffusion coefficient of each trajectory of the tracer bound to hOTR was plotted as a frequency distribution (Figure 7b2 ).
Live cell imaging. For 3D live cell imaging, attached and serum -starved HEK293-hOTR-GFP cells in 96-well
glass bottom plates were imaged on a ZEISS Lattice SIM Microscope using a 40x oil objective and SIM 2 post- […]

Starred links: 1 amine or outer side, 2 acyl side, 3 side chain; linkers in the order of their positions; H or OH if unused. Positions of bridges follow the written chain, without caps; N, C: chain ends. Non-standard residues stand in square brackets, D forms with d. Residues, ends and D or L forms follow the SMILES beside them. Groups on a side chain read outwards from the residue. *: point of attachment. X1 = CCN1C(=CC=CC2=[N+](CCCCCC(=O)*)c3ccc(S(=O)(=O)O)cc3C2(C)C)C(C)(C)c2cc(S(=O)(=O)[O-])ccc21; d(εLys) = N[C@H](CCCCN[*:1])C(=O)[*:2]; X2 = O=C(CC1(S[*:2])CCCCC1)[*:1]; PEG5 = NCCOCCOCCOCCOCCOCCC(=O)O; Orn = NCCC[C@H](N)C(=O)O; Mpa = O=C(O)CCS Some results are limits rather than exact numbers.

T8 sequence (O88721 whole entry): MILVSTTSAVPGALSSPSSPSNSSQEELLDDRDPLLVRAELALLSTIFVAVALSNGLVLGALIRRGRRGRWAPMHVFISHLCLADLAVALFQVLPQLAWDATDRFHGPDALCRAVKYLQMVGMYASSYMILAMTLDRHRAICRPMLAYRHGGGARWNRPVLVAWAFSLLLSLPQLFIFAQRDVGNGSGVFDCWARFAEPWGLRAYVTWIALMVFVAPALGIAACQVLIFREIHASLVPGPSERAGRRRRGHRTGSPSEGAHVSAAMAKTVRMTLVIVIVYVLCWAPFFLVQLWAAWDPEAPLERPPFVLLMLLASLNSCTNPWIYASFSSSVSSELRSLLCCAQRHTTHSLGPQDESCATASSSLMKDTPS
T6 sequence (Q62463 whole entry): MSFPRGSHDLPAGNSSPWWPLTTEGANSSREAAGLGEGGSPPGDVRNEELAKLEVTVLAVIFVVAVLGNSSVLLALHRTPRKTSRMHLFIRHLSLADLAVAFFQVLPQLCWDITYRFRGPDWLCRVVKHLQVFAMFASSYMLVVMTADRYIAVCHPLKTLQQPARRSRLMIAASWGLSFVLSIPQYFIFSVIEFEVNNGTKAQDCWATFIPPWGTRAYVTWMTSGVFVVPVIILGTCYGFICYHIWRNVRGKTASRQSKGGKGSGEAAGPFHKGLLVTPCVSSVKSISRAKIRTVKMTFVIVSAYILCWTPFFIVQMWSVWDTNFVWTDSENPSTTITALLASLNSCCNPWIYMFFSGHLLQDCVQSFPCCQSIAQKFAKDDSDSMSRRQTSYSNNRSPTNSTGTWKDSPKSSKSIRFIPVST
T2 sequence (P37288 whole entry): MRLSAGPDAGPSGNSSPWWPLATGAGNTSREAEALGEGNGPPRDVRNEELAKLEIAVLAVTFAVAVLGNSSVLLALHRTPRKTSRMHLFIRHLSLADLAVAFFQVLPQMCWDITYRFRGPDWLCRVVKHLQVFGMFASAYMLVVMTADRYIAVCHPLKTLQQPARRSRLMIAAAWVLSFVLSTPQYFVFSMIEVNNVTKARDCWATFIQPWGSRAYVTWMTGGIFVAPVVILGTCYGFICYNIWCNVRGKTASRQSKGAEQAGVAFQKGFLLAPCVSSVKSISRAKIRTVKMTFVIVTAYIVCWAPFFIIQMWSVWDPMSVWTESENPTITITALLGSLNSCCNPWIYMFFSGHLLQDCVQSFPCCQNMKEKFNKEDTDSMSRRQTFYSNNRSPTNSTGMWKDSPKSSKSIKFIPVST
T4 sequence (P30518 whole entry): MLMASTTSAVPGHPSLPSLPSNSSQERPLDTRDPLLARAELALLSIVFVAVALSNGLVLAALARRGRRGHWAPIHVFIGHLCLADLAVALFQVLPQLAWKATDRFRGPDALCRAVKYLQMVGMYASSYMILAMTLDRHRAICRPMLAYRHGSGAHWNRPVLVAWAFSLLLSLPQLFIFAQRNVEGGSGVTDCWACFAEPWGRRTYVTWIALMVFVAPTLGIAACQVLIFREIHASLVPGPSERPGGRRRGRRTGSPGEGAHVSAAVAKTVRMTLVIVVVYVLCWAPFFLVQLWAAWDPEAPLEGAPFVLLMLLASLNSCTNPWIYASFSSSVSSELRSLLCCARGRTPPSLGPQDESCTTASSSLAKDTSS
Experimental for hV1aR: (§14) Membrane preparation for radioligand assays. HEK293 cells were used for stable expression of GFP-tagged
(§15) human OTR, V1aR, V1bR, and V2R isoforms and transient expression of murine OTR, V1aR, V1bR, and V2R
(§16) isoforms. Cell culture work was performed under sterile conditions with DMEM high glucose containing 10%
(§17) FBS, and 50 U/mL P/S. Cells were cultured in 10 cm diameter cell culture dishes at 37°C in a humidified
(§18) atmosphere with 5% CO2, and cells were passaged at 70-90% confluency.
(§19) medium of stable cell lines at 0.5 mg/mL to sustain selection pressure, and cells were harvested at 90% confluency
(§20) for membrane preparation. For transient expression of murine receptors, 60% confluent wild-type HEK293 cells
(§21) were transfected using the jetPRIME transfection reagent according to the manufacturer’s protocol and harvested
(§22) 48 h post-transfection. For membrane preparation, cells were washed with ice-cold PBS pH 7.4, scraped into fresh
(§23) PBS on ice, and centrifuged at 4°C and 178 g for 10 min. The pellet was resuspended in a TRIS buffer solution
(§24) ice-cold water bath sonicator. The obtained solution was centrifuged for 20 min at 54,192 g and 4°C. The obtained […]
Specific binding was determined by […]
(§25) assessed Kd values of radiotracers and by fitting the data to a three -parameter logistic Hill equation and applying […]
(§26) concentration was determined using a Tri -Carb liquid scintillation analyzer. […]
Experimental for hV1bR: as §14, §15, §16, §17, §18, §19, §20, §21, §22, §23, §24
Specific binding was determined by […]
as §25, §26
Experimental for hV2R: as §14, §15, §16, §17, §18, §19, §20, §21, §22, §23, §24
Specific binding was determined by […]
as §25, §26
Experimental for mOTR: as §14, §15, §16, §17, §18, §19, §20, §21, §22, §23
ice-cold water bath sonicator. The obtained solution was centrifuged for 20 min at 54,192 g and 4°C. The obtained
pellet was resuspended in TRIS buffer without protease inhibitors, homogenized with an ultrasonicator, aliquoted,
and stored at -80°C until further use. A BCA assay was used to determine the protein concentration of the
Radioligand displacement and saturation experiments. Assay solutions consisting of competing ligand,
radioligand, and membrane preparation were incubated for 1 h at 37°C. Standard binding buffer solution (50 mM
TRIS, 5 mM MgCl2, 0.1% BSA, pH 7.4) was used to prepare all dilutions; the final assay volume was 200 µL.
concentrations were 8 μg/vial for hOTR, 5 μg/vial for hV1aR, and 3 μg/vial for hV1bR and hV2R, respectively , and
4 μg/vial for mOTR, 1.5 μg/vial for m V1aR, 3 μg/vial for mV 1bR, and 10 μg/vial for mV 2R. To assess non-specific
Specific binding was determined by
subtraction of the non-specific binding from the total binding. In radioligand displacement experiments, semi -
logarithmically spaced concentrations of respective test ligands were applied to determine K i values based on
assessed Kd values of radiotracers and by fitting the data to a three -parameter logistic Hill equation and applying
the Cheng and Prusoff approximation. 10 In case of human receptors from stable cell lines, Kd and Bmax values were
In case of murine receptors from transient
was performed using GraphPad Prism (version 9.5.1) . After incubation, membranes were filtered and washed on
a Skatron Cell Harvester using polyethyleneimine -coated glass fiber filters (type B, soaked in 0.1% aqueous
1 mM MgCl2, pH 7.4, 4°C). […]
as §26
Experimental for mV1aR: as §14, §15, §16, §17, §18, §19, §20, §21, §22, §23
(§27) The obtained solution was centrifuged for 20 min at 54,192 g and 4°C. The obtained […]
as §25, §26
Experimental for mV1bR: as §14, §15, §16, §17, §18, §19, §20, §21, §22, §23, §27, §25, §26
Experimental for mV2R: as §14, §15, §16, §17, §18, §19, §20, §21, §22, §23, §27, §25, §26

`CC[C@H](C)[C@@H]1NC(=O)[C@@H](Cc2ccc(O)cc2)NC(=O)CC2(CCCCC2)SSC[C@@H](C(=O)N2CCC[C@H]2C(=O)N[C@@H](CCCN)C(=O)O)NC(=O)[C@H](CC(N)=O)NC(=O)[C@H]([C@@H](C)O)NC1=O` [OTR antagonist (OTA), reference compound] ([dY]ITNCP[Orn]-OH; linker N-5 via X2): on hOTR (Ki ratio, VPR affinity divided by OTR affinity), the “Selectivity ratio hV1aR/hOTR” value is 1.02. For the same compound, the Ki was 44.9 ± 8.8 nM at hOTR; 45.8 ± 11.9 nM at hV1aR; more than 10000 nM at hV1bR; more than 10000 nM at hV2R; 5.9 ± 1.7 nM on mOTR (murine receptor, transient expression, mean ± SD); more than 10000 nM on mV1aR. The Ki at mV1bR was more than 10000 nM; on mV2R, 3010 ± 346 nM. On mOTR (Ki ratio), the “Selectivity ratio mV1aR/mOTR” value is more than 1500. For the same compound, the “Selectivity ratio mV1bR/mOTR” value on mOTR (Ki ratio) is listed as more than 1500. For the same compound, the “Selectivity ratio mV2R/mOTR” value on mOTR (Ki ratio) worked out at 510. Besides, in assay [1], the “Effect of OTA pretreatment on tracer (11) in UtSMC” value is “prevented tracer uptake as well as cellular contractions and membrane blebbing”. The “Effect of OTA pretreatment on tracer (11) uptake in mouse hippocampal neurons” value in [2] (10 µM, 30 min) is “completely inhibited the uptake”. In assay [3], the “Effect of OTA pretreatment on tracer (11) uptake in rat hippocampal neurons” value is on record as “prevented compound (11) internalization”. At hOTR-GFP in HEK293 cells [4] (10 µM, 30 min before 1 h stimulation with 100 nM tracer), the “Effect of antagonist pretreatment on hOTR-GFP internalization and accumulation of tracers (3) and (7)” value is “prevented hOTR‐GFP internalization and cytoplasmic accumulation”. Moreover, the “Effect of antagonist pretreatment on tracer (11) uptake” value at hOTR-GFP in HEK293 cells [4] (10 µM, 30 min pretreatment) was “completely prevented tracer (11) uptake”. Also, at hOTR-GFP in HEK293 cells [4] (10 µM, 30 min pretreatment, tracer (13) up to 100 nM), the “Effect of antagonist pretreatment on tracer (13) uptake and GFP internalization” value is given as “completely prevented”.

Consider `CC[C@H](C)[C@@H]1NC(=O)[C@H](Cc2ccc(O)cc2)NC(=O)CCSSC[C@@H](C(=O)N2CCC[C@H]2C(=O)N[C@@H](CCCNC(=O)[C@@H](CC(=O)O)NC(=O)CCOCCOCCOCCOCCOCCNC(=O)[C@H](N)CCCCNC(=O)CCCCC[N+]2=C(C=CC=C3N(CC)c4ccc(S(=O)(=O)[O-])cc4C3(C)C)C(C)(C)c3cc(S(=O)(=O)O)ccc32)C(=O)NCC(N)=O)NC(=O)[C@H](CC(N)=O)NC(=O)[C@H](CCC(N)=O)NC1=O` [Compound 11] ([Mpa]YIQNCP[Orn]([dD-PEG5-d(εLys)-X1])G-NH2; disulfide 1-6), for which the Ki was 2 nM on hOTR and more than 10000 nM at mV2R. The “Contraction of UtSMC” value in assay [1] (100 nM, live-cell imaging) is on record as “induced rapid contractions within minutes”. Further, in assay [1] (60 min treatment), the “Tracer uptake in UtSMC” value is “accumulation was observed in vesicle‐like structures within 60 min”. Also, the “Tracer uptake in mouse hippocampal neurons” value in [2] (100 nM, 1 h, E16.5 neurons cultured 14 days) is listed as “robust uptake in subpopulations of neurons”. Also, on hOTR-GFP in HEK293 cells [4] (post ICC, normalized to control), the “Cy3s signal accumulation in hOTR-expressing cells” value is on record as “significant concentration‐dependent accumulation”. Further, at hOTR-GFP in HEK293 cells [5], the “Time to peak internalization” value is 5 to 10 min.

The Ki is the equilibrium dissociation constant of an inhibitor or competing ligand from its target.

For the origin of these results see article PMC12603982 (Angewandte Chemie (International Ed. in English), 2025).
